Reference: patent US5538945A, “Stimulation of hair growth by peptide copper complexes” (ProCyte Corporation, priority 1994, dated 1996)

Tests used:
Format in all cases: in vivo
[1] = test system: telogen cycle female C3H mice; experiment: Stimulation of hair growth by topical application of a peptide-copper complex (Example 14)
Description: This example illustrates the stimulation of hair growth in warm-blooded animals by topical application of a peptide-copper complex. In this experiment, telogen cycle female C3H mice (60-65 days old) were prepared by clipping their posterior dorsal region (i.e., day 1). Topical application of peptide-copper complexes was performed twice per day (Monday-Friday) using a cotton-tipped applicator which delivered approximately 0.1 ml per treatment. The topical formulation used in this experiment contained the following components:
Topical application of the above formulation continued until the onset of follicle pigmentation, which proceeds the emergence of the hair shall. Measurement of the degree of response was performed using digital image analysis at weekly intervals, beginning at day 14. Data was expressed as the percent treatment area response using the following equation:
% treatment area=(growth area/treatment area)×100
For comparison purposes to illustrate the effect of hydrophobic amino acid residues on hair growth after topical application, AHK:Cu was compared to AHF:Cu. In this experiment, topical formulations containing AHK:Cu (1.1:1) and AHF:Cu (1.1:1) were prepared at a concentration of 0.5% and 0.1% (w/w) as indicated above. Hair growth response (i.e., "Percent Treatment Area") was determined at day 20, day 27 and at day 34.

[2] = test system: C3H mice (telogen hair growth phase); experiment: Stimulation of hair growth after intradermal injection of peptide-copper complexes (Example 12); details: peptide to copper 2:1, day 21; for Number of Animals Growing Hair: responders/injected mice
Description: The following example illustrates the stimulation of hair growth in warm-blooded animals after intradermal injection of representative peptide-copper complexes of this invention.
As in Example 11 above, the backs of C3H mice (60 days old, telogen hair growth phase) were closely clipped on day 1 using an electric clipper. A sterile saline solution containing the indicated peptide-copper complex was then injected intradermally (i.e., infiltrated under the skin) at two locations within the clipped areas of the mice. Injection at two locations provided two test locations within the clipped area of each mouse. Each injection (0.1 ml) contained between 0.75 to 1.5 mg of the peptide-copper complex within the sterile saline solution. A group of saline injected mice (0.1 ml) served as controls. Following injection of the peptide-copper complexes, indications of hair growth were seen within 10 days. The first visual signs were a darkening of the skin in a circular region surrounding the injection site. The size of this region is generally dose dependent, increasing with an increase in dose. The 0.1 ml injections used in this experiment produced a circle of hair growth measuring approximately 0.5 cm^2 to 5 cm^2 in diameter. Active hair growth occurred between 14-20 days following injection, with a maximum effect seen by day 29. Both the number of mice growing hair at the injection site and the diameter of the hair growth region were determined at day 21.

[3] = test system: C3H mice (telogen hair growth phase); experiment: Stimulation of hair growth by intradermal injection of peptide-copper complexes containing D-amino acids (Example 13); details: peptide to copper 1.1:1
Description: This example illustrates the stimulation of hair growth in warm-blooded animals by intradermal injection of AHK:Cu (1.1:1) utilizing a D-amino acids inplace of the naturally occurring L-amino acid.
In this experiment, the backs of C3H mice (60 days old, telogen hair growth phase) were closely clipped on day 1 using an electric clipper. A sterile saline solution containing AHK:Cu (1.1:1), or AHK:Cu (1.1:1) containing a D-amino acid, was then injected intradermally (i.e., infiltrated under the skin) at two locations within the clipped areas of the mice. Injection at two locations provided two test locations within the clipped area of each mouse. Each injection (0.1 ml) contained either 1.2 or 1.8 μmoles per injection of peptide-copper complex in the sterile saline solution. A group of saline injected mice (0.1 ml) served as controls. Following injection of peptide copper complex, indications of hair growth were seen within 10 days. The first visual signs were a darkening of the skin in a circular region surrounding the injection site. The size of this region is generally dose dependent, increasing with an increase in dose. The 0.1 ml injections used in this experiment produced a circle of hair growth measuring approximately 0.5 cm^2 to 5 cm^2 in diameter. […]
The degree of hair growth was determined by measuring the total area of hair growth at the two injection sites.

[4] = test system: Sprague-Dawley rat pups treated with cytosine arabinoside (Ara-C); experiment: Localized maintenance of hair follicle viability by intradermal injection during Ara-C chemotherapy (Example 16); details: for Degree of Alopecia (mean) at the site of injection: day 10, grade 0 normal to 4 total loss of hair
Excerpt: The following experiment illustrates the localized maintenance of hair follicle viability (i.e., growth) by intradermal (local) injection of the peptide-copper complex AHK:Cu during treatment with the chemotherapeutic agent cytosine arabinoside (Ara-C).
In this experiment, Sprague-Dawley rat pups (age 8 days) were maintained in 5 litters (n=10-11/litter) for the duration of this study. On day 0, litters received intradermal (ID) injections of AHK:Cu (1:1) in a sterile saline solution, or a saline control (1 injection per animal, 0.05 ml per injection). Each litter contained 2 normal control animals where no AHK:Cu or Ara-C was administered (i.e., saline only). On day 1, designated animals began a series of 7 consecutive daily intraperitoneal (IP) injections with Ara-C (25 mg/kg). On day 10, all animals were evaluated for the extent of hairloss (alopecia) at the injection sites using the rating identified in Example 15.
Ara-C injections caused significant hair loss by day 5-6 in most animals. In order to evaluate the stimulatory effect of AHK:Cu, the degree of hairloss was evaluated at the injection site daily. […] Table 9 presents the results as evaluated on day 10 using the previously described rating scale, with the "Degree of Alopecia" being expressed as the average response seen at the site of injection.

[5] = topical 0.1% w/w twice per day, peptide to copper 1.1:1, day 20
[6] = topical 0.1% w/w twice per day, peptide to copper 1.1:1, day 27
[7] = topical 0.1% w/w twice per day, peptide to copper 1.1:1, day 34
[8] = topical 0.5% w/w twice per day, peptide to copper 1.1:1, day 20
[9] = topical 0.5% w/w twice per day, peptide to copper 1.1:1, day 27
[10] = topical 0.5% w/w twice per day, peptide to copper 1.1:1, day 34

With alanyl-histidyl-lysine:copper [AHK:Cu] the “Relative hair growth activity after topical administration” value ([1]; AHK:Cu compared to AHF:Cu, topical) was “more active in stimulating hair growth”, the “Percent Treatment Area (growth area/treatment area x 100)” value [1, 5] was 1.29 ± 1.29% and the “Percent Treatment Area (growth area/treatment area x 100)” value [1, 6] was 23.07 ± 18.84%. The “Percent Treatment Area (growth area/treatment area x 100)” value [1, 7] was 90.14 ± 2.96%, the “Percent Treatment Area (growth area/treatment area x 100)” value [1, 8] was 75.87 ± 7.64% and the “Percent Treatment Area (growth area/treatment area x 100)” value [1, 9] was 100%. For the same substance, the “Percent Treatment Area (growth area/treatment area x 100)” value [1, 10] was 100%, the “Area of Hair Growth” value ([2]; 0.75 mg/injection intradermal) was under 1 cm diameter and the “Number of Animals Growing Hair” value ([2]; 0.75 mg/injection intradermal) was 1/4. The “Area of Hair Growth” value ([2]; 1.50 mg/injection intradermal) was over 1 cm diameter, the “Number of Animals Growing Hair” value ([2]; 1.50 mg/injection intradermal) was 4/4 and the “Area of Hair Growth (total area at the two injection sites)” value ([3]; 1.2 μmoles per injection intradermal) was 3.07 ± 0.76. For the same substance, the “Area of Hair Growth (total area at the two injection sites)” value ([3]; 1.8 μmoles per injection intradermal) was 3.24 ± 1.17, the “Degree of Alopecia (mean) at the site of injection” value (shortened to “Degree of Alopecia (mean)”) ([4]; 0.05 mg per injection, 3.5 mg/kg intradermal day 0, peptide to copper 1:1, Ara-C 25 mg/kg IP x 7 days) was 3.25 and the “Degree of Alopecia (mean)” value ([4]; 0.10 mg per injection, 7.0 mg/kg intradermal day 0, peptide to copper 1:1, Ara-C 25 mg/kg IP x 7 days) was 2.38. The “Degree of Alopecia (mean)” value ([4]; 0.25 mg per injection, 17.5 mg/kg intradermal day 0, peptide to copper 1:1, Ara-C 25 mg/kg IP x 7 days) was 1.44, the “Degree of Alopecia (mean)” value ([4]; 0.50 mg per injection, 35.0 mg/kg intradermal day 0, peptide to copper 1:1, Ara-C 25 mg/kg IP x 7 days) was 1.11 and the “Histology of hair follicles at the injection site” value ([4]; intradermal, with Ara-C, follicles away from the injection dystrophic and non-functional) was “normal appearing and functioning anagen hair follicles”. The “Radius of retention of hair around the injection site” value ([4]; intradermal, with Ara-C, most notably in the 0.1 to 0.5 mg dose groups) was 0.25 cm.

With “alanyl-histidyl-phenylalanine:copper [AHF:Cu]” the “Percent Treatment Area (growth area/treatment area x 100)” value [1, 5] was 0.00%, the “Percent Treatment Area (growth area/treatment area x 100)” value [1, 6] was 0.00% and the “Percent Treatment Area (growth area/treatment area x 100)” value [1, 7] was 12.91 ± 12.91%. The “Percent Treatment Area (growth area/treatment area x 100)” value [1, 8] was 55.05 ± 17.44%, the “Percent Treatment Area (growth area/treatment area x 100)” value [1, 9] was 100% and the “Percent Treatment Area (growth area/treatment area x 100)” value [1, 10] was 100%.
